According to patent US7998965B2, “Glutamate aggrecanase inhibitors” (Wyeth LLC, priority 2005, dated 2011):
Where two headings read alike, the source gives them in different places.

Legend:
[1] = molecular target: T1, purified recombinant human Aggrecanase-1 (rAgg1) (Homo sapiens, UniProt O75173); experiment: In vitro fluorescence screen for Aggrecanase-1 inhibitors; format: biochemical; set-up: Agg1 % at concentration: scale not given here; conditions: for Agg1 % at concentration: Table 3; for IC50: Table 2, read-out: Agg1 IC50
T1 sequence (O75173 213-837): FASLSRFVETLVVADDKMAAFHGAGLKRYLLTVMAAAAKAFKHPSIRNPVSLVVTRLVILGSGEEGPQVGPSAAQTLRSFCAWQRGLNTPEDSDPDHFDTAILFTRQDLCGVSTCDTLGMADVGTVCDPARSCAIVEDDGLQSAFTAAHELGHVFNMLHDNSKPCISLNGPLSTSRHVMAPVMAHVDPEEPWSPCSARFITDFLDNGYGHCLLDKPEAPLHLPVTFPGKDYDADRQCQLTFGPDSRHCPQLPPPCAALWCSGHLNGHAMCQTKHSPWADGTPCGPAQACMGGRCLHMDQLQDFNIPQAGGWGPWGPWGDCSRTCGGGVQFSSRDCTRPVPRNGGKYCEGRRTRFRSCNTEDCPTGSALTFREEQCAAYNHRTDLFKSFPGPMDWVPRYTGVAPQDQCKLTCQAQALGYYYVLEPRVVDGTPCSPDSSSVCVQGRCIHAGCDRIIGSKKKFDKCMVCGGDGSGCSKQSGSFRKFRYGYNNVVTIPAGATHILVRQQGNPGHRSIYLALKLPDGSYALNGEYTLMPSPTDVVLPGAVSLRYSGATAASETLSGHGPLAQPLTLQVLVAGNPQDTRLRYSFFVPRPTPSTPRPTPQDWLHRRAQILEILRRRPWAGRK

[2] = molecular target: T2, purified recombinant human Aggrecanase-2 (Ag2t-Phe628-Strep) (Homo sapiens, UniProt Q9UNA0); experiment: In vitro fluorescence screen for Aggrecanase-2 inhibitors; format: biochemical; conditions: for IC50: read-out: Agg 2 IC50; for Agg 2 % at concentration: at 11000 (nM)
T2 construct: the form used is denoted as Ag2t-Phe628-Strep (MW=41,737)
T2 sequence (Q9UNA0 262-628): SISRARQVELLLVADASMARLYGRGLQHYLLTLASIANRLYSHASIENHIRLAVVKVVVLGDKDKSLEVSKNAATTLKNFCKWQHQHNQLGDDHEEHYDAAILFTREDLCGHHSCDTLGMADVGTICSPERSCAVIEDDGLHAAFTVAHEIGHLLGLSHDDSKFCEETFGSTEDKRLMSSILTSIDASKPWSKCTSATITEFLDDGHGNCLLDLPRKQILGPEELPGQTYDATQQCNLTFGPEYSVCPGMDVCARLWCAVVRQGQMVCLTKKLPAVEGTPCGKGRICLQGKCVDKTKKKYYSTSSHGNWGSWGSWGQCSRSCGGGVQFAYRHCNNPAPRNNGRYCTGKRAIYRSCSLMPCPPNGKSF

SMILES	IC50 [1] [nM]	IC50 ([2]; Table 2) [nM]	further results
COc1cccc(-c2cccc(COc3ccc(-c4ccc(C(=O)N[C@@H](CCC(=O)O)C(=O)NCc5ccccc5)cc4)cc3)c2)c1 [Example 15V, N-benzyl-N^2-({4′-[(3′-methoxybiphenyl-3-yl)methoxy]biphenyl-4-yl}carbonyl)-L-α-glutamine]	–	–	Agg1 % at concentration ([1]; at 40 (nM)): 47% 40; IC50 ([2]; Table 3): 700 nM
O=C(O)CC[C@H](NC(=O)c1ccc(-c2ccc(OCc3ccccc3-c3ccccc3)cc2)cc1)C(=O)NCc1ccccc1 [Example 15W, N-benzyl-N^2-{[4′-(biphenyl-2-ylmethoxy)biphenyl-4-yl]carbonyl}-L-α-glutamine]	–	–	Agg1 % at concentration ([1]; at 1900 (nM)): 56%; Agg 2 % at concentration ([2]; Table 3): 59%
COc1cccc(-c2ccccc2COc2ccc(-c3ccc(C(=O)N[C@@H](CCC(=O)O)C(=O)NCc4ccccc4)cc3)cc2)c1 [Example 15X, N-benzyl-N^2-({4′-[(3′-methoxybiphenyl-2-yl)methoxy]biphenyl-4-yl}carbonyl)-L-α-glutamine]	–	–	Agg1 % at concentration ([1]; at 1900 (nM)): 46%; Agg 2 % at concentration ([2]; Table 3): 52%
CC(C)(Cc1ccccc1)NC(=O)[C@H](CCC(=O)O)NC(=O)c1ccc(-c2ccc(COc3cccc(C(C)(C)C)c3)cc2)cc1 [Example 15Y, N^2-({4′-[(3-tert-butylphenoxy)methyl]biphenyl-4-yl}carbonyl)-N-(1,1-dimethyl-2-phenylethyl)-L-α-glutamine]	220	841	–
CC(C)(Cc1ccccc1)NC(=O)[C@H](CCC(=O)O)NC(=O)c1ccc(-c2ccc(COc3cc(C(C)(C)C)cc(C(C)(C)C)c3)cc2)cc1 [Example 15Z, N^2-({4′-[(3,5-di-tert-butylphenoxy)methyl]biphenyl-4-yl}carbonyl)-N-(1,1-dimethyl-2-phenylethyl)-L-α-glutamine]	1400	6040	–
CCOc1cccc(-c2ccc(C(=O)N[C@@H](CCC(=O)O)C(=O)NCc3cc(OC)c(OC)c(OC)c3)cc2)c1 [Example 16, N^2-[(3′-ethoxybiphenyl-4-yl)carbonyl]-N-(3,4,5-trimethoxybenzyl)-L-α-glutamine]	< 30	467	–

Further lines, with some results ahead:

IC50 [1] [nM]	IC50 ([2]; Table 2) [nM]	SMILES	further results
116	1120	CCOc1ccccc1-c1ccc(C(=O)N[C@@H](CCC(=O)O)C(=O)NCc2cc(OC)c(OC)c(OC)c2)cc1 [Example 17A, N^2-[(2′-ethoxybiphenyl-4-yl)carbonyl]-N-(3,4,5-trimethoxybenzyl)-L-α-glutamine]	–
3500	5700	COc1cc(CNC(=O)[C@H](CCC(=O)O)NC(=O)c2ccc(-c3ccc(C(C)C)cc3)cc2)cc(OC)c1OC [Example 17AA, N^2-[(4′-isopropylbiphenyl-4-yl)carbonyl]-N-(3,4,5-trimethoxybenzyl)-L-α-glutamine]	–
204	1020	COc1ccc(-c2ccc(C(=O)N[C@@H](CCC(=O)O)C(=O)NCc3cc(OC)c(OC)c(OC)c3)cc2)cc1 [Example 17B, N^2-[(4′-methoxybiphenyl-4-yl)carbonyl]-N-(3,4,5-trimethoxybenzyl)-L-α-glutamine]	–
3600	2900	O=C(O)CC[C@H](NC(=O)c1ccc(-c2ccc3occc3c2)cc1)C(=O)NCC12CC3CC(CC(C3)C1)C2 [Example 17BB, N-(1-adamantylmethyl)-N^2-[4-(1-benzofuran-5-yl)benzoyl]-L-α-glutamine]	–
< 30	80	COc1cccc(-c2ccc(C(=O)N[C@@H](CCC(=O)O)C(=O)NCc3cc(OC)c(OC)c(OC)c3)cc2)c1 [Example 17C, N^2-[(3′-methoxybiphenyl-4-yl)carbonyl]-N-(3,4,5-trimethoxybenzyl)-L-α-glutamine]	–
2900	2970	O=C(O)CC[C@H](NC(=O)c1ccc(-c2ccc3[nH]ccc3c2)cc1)C(=O)NCC12CC3CC(CC(C3)C1)C2 [Example 17CC, N-(1-adamantylmethyl)-N^2-[4-(1H-indol-5-yl)benzoyl]-L-α-glutamine]	–
